# Entries after “also recorded” stand apart in the source; their conditions may differ.
# Tests used:
# [1] = system: angiotensin II (AII)-induced AAA; test: AII-induced AAA mouse model, post-treatment; assay type: in vivo
# Excerpt: To determine if senescence is a major cause of aneurysm development, the association between senescence and aneurysms using the angiotensin II (AII)-induced AAA model was investigated. Mice were infused AII for four weeks using osmotic mini-pump implantation into Apoe^−/− transgenic mouse.
# To investigate the therapeutic potential of ketotherapy for abdominal aortic aneurysm (AAA), Ketogenic-diet (KD) and Ketone-ester (KE) were provided to angiotensin II (AII)-induced mouse model of AAA (FIG. 6). […] After completing AII infusion, the mice were post-treated with KD and KE for two to four weeks.
# To investigate the time-dependent reduction of aorta diameter, the inner diameter of the aorta using ultrasound analysis was measured.
# [2] = system: normal SMCs (NC); test: Caspase 3 activity assay on normal SMCs; assay type: cell-based; conditions: FIG. 2I
# Experimental: FIGS. 2A-2L. (a) Cytotoxicity assay of normal smooth muscle cells (NS) and senescent smooth muscle cells (SMCs). Replicative senescent SMCs (RS) and premature senescent SMCs, stimulated by H2O2 (HP), arsenic (Ars), and Nutlin 3a (Nut) treatment were treated with βHB, s-βHB, and ABT-737. (b) Flow cytometry analysis of apoptosis by βHB or s-βHB in radiation (10 Gy)-induced senescent SMC. (c) Quantitation of apoptotic cell and senescent cell after treating βHB and s-βHB in radiation-induced senescent SMC. (d) Representative aorta image of AII-infused mice with post-treatment of ABT-737, βHB and s-βHB. (e) External diameter of abdominal aorta infused with AII and post-treated with ABT-737 βHB and s-βHB. (f) SA-βGal activity assay of the whole aorta infused with AII, and post-treated with ABT-737, KD, or KE. (g) Quantitation of senescent area on aorta of AII-infused mice, and post-treated with KD, KE and ABT-737. (h) TUNEL assay on the abdominal aorta of AII infused mice, and treated with ABT-737, βHB, or s-βHB. SM-α Actin (SMA) and DAPI are co-stained after TUNEL reaction. (i) Caspase 3 activity assay on normal SMCs (NC) treated with βHB, or s-βHB, and ABT-737 comparing to normal cells pretreated with Nutlin-3a. (j) Caspase 3 activity assay on senescent SMCs (SNC) treated with βHB, or s-βHB, and ABT-737 compared to senescent cells pretreated with pifithrin-α. (k) Western blot analysis for p53 and puma expression on abdominal aorta tissue from mice treated with AII or KE. (I) Immunohistochemistry staining for puma expression on abdominal aorta infused by AII and post-treated with KE.
# To overcome the anti-apoptotic barrier of senescence cells, senolytics usually target p53/Bcl2 cascades. Moreover, p53 is considered as a barrier to prevent apoptosis in senescence cells. Therefore, it was investigated if βHB-mediated apoptosis is p53 dependent. […] To further validate p53 dependent apoptosis on AAA, p53 activation and puma expression were investigated. […] In addition, inflammatory response accompanying the apoptosis of senescence cells was observed specifically in the abdominal aorta tissue, while systemic inflammation decreased during ketotherapy (FIGS. 10A-F). […] Ketotherapy can lower the blood pressure caused by AII infusion, which is not the case with ABT-737 (FIGS. 10H-J).
# [3] = system: angiotensin II (AII)-induced AAA; test: AII-induced AAA mouse model, post-treatment; assay type: in vivo; conditions: injection every other day for two weeks, FIG. 2E
# [4] = Metabolic alterations by post-treatment; assay type: in vivo, mouse; conditions: four weeks, FIG. 7
# Excerpt: In order to identify the primary factors for reversing AAA formation, metabolic alterations by post-treatment were investigated. […] Thus, abnormal lipid metabolism caused by KD is unlikely required or helpful for AAA recovery.
# [5] = system: AII-induced AAA development; test: Pretreatment with ketotherapy in AII-induced AAA; assay type: in vivo, mouse; conditions: FIG. 8A-C
# Excerpt: Senescence is considered to be major risk factor that promotes AAA development. […] To determine whether vascular senescence is critical for AAA formation, senescence was prevented by pretreatment with ketotherapy.
# (§1) To confirm the possibility that the therapeutic effect of βHB on AAA is not only applied to AII-induced AAA, the CaCl2)-induced AAA animal model was also examined as well (FIG. 5A).
# [6] = system: CaCl2-induced AAA; test: CaCl2-induced AAA animal model, post-treatment; assay type: in vivo, mouse
# Experimental: FIGS. 5A-5J. (a) Representative image of aorta which developed CaCl2)-induced AAA, and post-treated with KD, KE, βHB, s-βHB, or ABT-737. KD is provided to mice for 4 weeks, KE is administrated with drinking water, βHB, s-βHB or ABT-737 are IP injected for 2 weeks with 48h intervals. (b) Incidence of AAA by CaCl2) treatment and proportion of mice recovered from the AAA after post-treatment of KD, KE, βHB and s-βHB for 2 weeks. (c) Time-dependent observation of inner diameter after CaCl2) treatment and post-treatment of KD or KE (28˜56 days after surgery). (d) Comparison of ultrasound images of CaCl2)-induced AAA to the identical aorta post-treated with βHB for 2 weeks. (e) H&E staining of aorta from the mice developed with CaCl2)-induced AAA, and post-treated with KD, KE, βHB, and s-βHB. (f) SA β-Gal activity assay on aorta which developed CaCl2)-induced AAA, and post-treated with KD, KE, βHB, s-βHB, or ABT-737. (g) Quantitation of senescent area on aorta developed with CaCl2)-induced AAA, and post-treated with KD, KE, βHB, s-βHB. (h) Verhoeff Van Gieson/EVG staining of abdominal aorta developed with CaCl2)-induced AAA, post-treated with KD, KE, βHB and s-βHB. (i) Average number of elastic fibers on abdominal aorta presented at FIG. 5H. (j) Measurement of Pulse Wave Velocity (PWV) on CaCl2)-infused mice with post-treatment of KD, KE, βHB, and s-βHB.
# as §1
# To further validate the therapeutic efficacy of s-βHB on aneurysms, we used a CaCl2-induced AAA animal model as well as an angiotensin II infusion model. […] Two-way ANOVA, s-βHB vs βHB, #P<0.01, n=10. Since the elimination of senescent SMCs is critical for the recovery of AAA, we investigated that s-βHB is also effective to remove senescent cells in CaCl2)-induced aneurysms. […] Student's T-test for s-βHB vs βHB, ^#P<0.05, n=8.
# [7] = system: aortic dissection (TAD, AAD); test: BAPN + AngII mouse model of aortic dissection; assay type: in vivo
# Experimental: (§2) (a) schematic description of aortic dissection model and ketone treatment. Five-week-old C57BL/6 mice were continuously treated with β-aminopropionitrile (BAPN, 3 g/L/day in drinking water) for 28 days. To test the impacts of ketone body, BAPN-treated mice at day 17 to day 31 were given ketone ester (KE, D-BHB 1-3 butanediol monoester) (20 g/L and 50 gL at 5 mL per day) in drinking water. Further, the BAPN-treated mice, with or without ketone treatment, were continuously infused with angiotensin (AngII, 1.44 mg/kg/day) for three days via subcutaneously implanted osmotic pumps). Three days after AngII infusion, the mice were euthanized to assay for aortic dissection.
# as §2, with “Five week old C57BL/6” for “(a) schematic description of aortic dissection model and ketone treatment. Five-week-old C57BL/6”, “drinking water))” for “drinking water)”, “50 g/L)” for “50 gL at 5 mL per day)”, “euthanized for” for “euthanized to”, “assay” for “assay for”
# [8] = Soto-Mota et al. 2019; cited from earlier work
structure (smiles),measurement,setting,value
"CN(C)CC[C@H](CSc1ccccc1)Nc1ccc(S(=O)(=O)NC(=O)c2ccc(N3CCN(Cc4ccccc4-c4ccc(Cl)cc4)CC3)cc2)cc1[N+](=O)[O-] [ABT-737, reference compound]","TUNEL assay, apoptosis of senescent plaque in the aneurysm",[1]; FIG. 2H,induced targeted apoptosis of senescent plaque
same,"branched elastic fibers, Verhoeff Van Gieson/EVG stain",[1]; FIG. 3C,less branched elastic fibers
same,number of elastic layers / elastic recovery,[1]; FIG. 3D,less effective on elastic recovery
same,aortic dissection,"[1]; blood clots inside aneurysm plaque, FIG. 3B",caused aortic dissection
same,volume of aneurysm plaque,[1]; injected,successfully reduced
same,AAA on whole aorta images,"[1]; injected every other day for two weeks, FIG. 2D",successfully rescued
same,mice with abdominal rupture resulting in sudden death,"[1]; injected mice, FIG. 3A",30%
same,apoptosis in normal cells after p53 stabilization,[2]; after p53 stabilization by Nutlin 3a,triggers apoptosis
same,apoptosis in normal cells (NC),[2]; without Nutlin 3a,did not induce apoptosis
same,external diameter of the abdominal aorta,[3],significantly reduced
"C[C@@H](O)CCOC(=O)C[C@@H](C)O [KE, [(3R)-3-hydroxybutyl] (3R)-3-hydroxybutanoate]","aneurysm formation, ultrasound images of identical mouse aorta",[1]; FIG. 1D,reverts aneurysm formation
same,"abdominal aorta stiffness, Pulse Wave Velocity (PWV)","[1]; FIG. 3H, FIG. 18A",ameliorated vascular stiffness; also recorded: reversed aneurysm-associated aortic stiffness
same,"SMC markers (HEXIM1, Calponin 1, SM α-Actin) and dedifferentiation markers (Oct4, MMP2), Western blot","[1]; abdominal aorta, post-treatment, FIG. 3E",reversed all the markers of dedifferentiation and simultaneously recovered SMC markers
same,degenerative markers in PVAT,"[1]; abdominal versus thoracic PVAT, FIG. 3G","specifically reverses degenerative markers, col1A1, RUNX2, and PU.1 in abdominal perivascular adipose (PVAT), not in thoracic PVAT"
same,recovered proportion of AII-induced AAA,"[1]; post-treatment 2 to 4 weeks after 4 weeks AII infusion, C57Bl6 ApoE−/− mice, AAA incidence 60%, FIG. 1A",26%
same,proportion of AII-induced AAA,"[1]; post-treatment 2 to 4 weeks, FIG. 1A",successfully reduced
same,enlarged external diameter of AAA,"[1]; post-treatment of KD and KE, FIG. 1C",decreased significantly
same,"collagen network, Masson's trichrome staining","[1]; post-treatment, FIG. 3F",reconstituted at the perivascular area
same,"myofibroblast, SM α-Actin and FSP co-staining in aortic wall","[1]; post-treatment, FIGS. 17A-17B",increases
same,p53 activation and puma expression on abdominal aorta,"[1]; post-treatment, Western blot and IHC, FIG. 2K",activated phosphorylation of p53 and elevated puma expression
same,"metabolic alterations (body weight, fat mass, blood glucose, TG, liver lipid, insulin resistance)",[4],did not cause metabolic changes such as insulin resistance
same,AII-induced AAA development,[5],strongly inhibited
same,recovery from CaCl2-induced AAA,[6]; FIGS. 5A and 5B,Effective recovery
same,AAA progression,"[6]; post-treatment after four weeks, FIG. 5C",inhibited AAA progression
same,incidence of TAD,"[7]; 20 g/L and 50 g/L in drinking water, day 17 to day 31, FIG. 19B",significantly reduces
same,incidence of AAD,"[7]; 20 g/L and 50 g/L in drinking water, day 17 to day 31, FIG. 19C",significantly reduces
same,survival rate,"[7]; high dose 50 g/L, FIG. 19D",significantly increase
same,metabolic fate (hydrolysis),[8],"complete enzymatic hydrolysis to release R-βHB and R-butane-1,3-diol"

# Reference: patent publication US20240342121A1, “THE USE OF BETA-HYDROXYBUTYRATES FOR THE TREATMENT OR PREVENTION OF ANEURYSMS AND DISSECTIONS” (priority 2021, published 2024)
